Our source for the IC50, Dmax and DC50 values is patent US20260325654A1, “METHODS AND COMPOSITIONS FOR TARGETED PROTEIN DEGRADATION” (Ranok Therapeutics (Hangzhou) Co. Ltd., priority 2023, published 2026).

A value given as a limit tells only on which side of the number the result lay.

The subject of one assay is SW1990. Nature of the assay: CellTiter-Glo Reagent cancer cell line proliferation assay, SW1990. The note with it: Homo sapiens; SW1990, KRAS(G12D) homozygous, 24 hr. The format is cell-based. An excerpt: (§1) The following cancer cell lines were employed: • AsPC-1 human pancreatic adenocarcinoma, homozygous KRAS(G12D), (ATCC, #CRL-1682); A-427 human lung carcinoma, heterozygous KRAS(G12D), (ATCC, #HTB-53); AGS human gastric adenocarcinoma, heterozygous KRAS(G12D), (ATCC, #CRL-1739); GP2D human colon adenocarcinoma, heterozygous KRAS(G12D), (Sigma Aldrich, 95090714); SW1990 human pancreatic adenocarcinoma, homozygous KRAS(G12D), (ATCC, #CRL2172); LU65A human lung giant cell carcinoma, heterozygous KRAS(G12C), (JCRB Cell Bank, #JCRB0054); NCIH727 human lung carcinoid, heterozygous KRAS(G12V), (ATCC, #CRL-5815); MKN1 human gastric adenosquamous carcinoma KRAS (wt), (JCRB Cell Bank, #JCRB0252). Cell lines were cultured according to ATCC, JCRB and Sigma Aldrich recommendations.
(§2) Cells were plated in 96-well tissue culture plates at 4,000 cells/well and incubated at 37° C./5% CO2 for 24 hr in 100 μl of media. 3-fold serial dilutions of each test compound were prepared ranging from 20 μM to 1.02 nM. Cells were then treated with test compounds at various concentrations with a final concentration of 0.5% DMSO/well, and then incubated at 37° C./5% CO2 for 24 hr. 100 μl of CellTiter-Glo® Reagent (Promega Corporation, Madison, WI) was added to each well and processed according manufacturer's protocol. Results were analyzed and IC50-values were calculated in GraphPad 7 software.
In general terms: In ATP-based viability assays light output follows the ATP content of the culture.

The test system of another assay is ASPC-1. The assay is described as follows: CellTiter-Glo Reagent cancer cell line proliferation assay, ASPC-1. The format is cell-based. The settings on record: Homo sapiens, ASPC1; ASPC-1, KRAS(G12D) homozygous, 24 hr.
Source text: as §1, §2

The next assay deals with AGS. The assay is described as follows: CellTiter-Glo Reagent cancer cell line proliferation assay, AGS. The note with it: Homo sapiens, 24 h, KRAS(G12D) heterozygous. The format is cell-based, human. Put shortly:
(§3)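 Cells were seeded at 4,000 per well, grown 24 hr at 37° C./5% CO2, then exposed 24 hr to 3-fold dilutions from 20 μM to 1.02 nM (0.5% DMSO final). Viability was read with CellTiter-Glo luminescence, and IC50 values were calculated.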

Another assay relates to A427. Nature of the assay: CellTiter-Glo Reagent cancer cell line proliferation assay, A427. The assay is classed as cell-based. The note with it: Homo sapiens, A-427; A427, KRAS(G12D) heterozygous, 24 hr.
Source text: as §1, §2

The subject of a further assay is GP2D. Nature of the assay: CellTiter-Glo Reagent cancer cell line proliferation assay, GP2D. The assay is classed as cell-based. The note with it: Homo sapiens, KRAS(G12D) heterozygous, 24 hr. Put shortly:
as §3

Another assay deals with KRAS(G12D) (Homo sapiens, UniProt P01116, G12D). The assay is described as follows: cell-based. The assay is classed as cell-based. Details: Cell lines SW1990 and GP2D that express KRAS(G12D); host or cells: SW1990. The settings on record: for Dmax: SW1990, read-out: WB data SW1990 DMax; for DC50: read-out: WB data SW1990 DC50, SW1990, KRAS degradation, 24 hr. On the procedure: Cell lines were cultured according to ATCC, JCRB and Sigma Aldrich recommendations.
Chain of KRAS(G12D) (P01116 1-188 isoform P01116-2 G12D): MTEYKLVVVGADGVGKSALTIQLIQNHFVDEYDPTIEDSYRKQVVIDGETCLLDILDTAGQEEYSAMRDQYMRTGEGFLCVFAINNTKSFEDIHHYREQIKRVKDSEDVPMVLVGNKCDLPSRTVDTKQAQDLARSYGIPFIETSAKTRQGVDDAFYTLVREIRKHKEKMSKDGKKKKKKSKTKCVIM
Cells were then washed with cold PBS, aspirated and cold RIPA buffer containing a protease/phosphatase inhibitor cocktail was added to lyse cells. After centrifugation, the total protein concentrations of cell lysates were determined using the BCA protein assay. Samples were normalized for equivalent protein concentrations, 5× SDS-PAGE loading buffer added and denatured at 100° C. for 10 min. 20 μl of each sample/well was loaded on a SDS-PAGE gel and electrophoresed for 20 min at 80 V, then 120 V for 1.5 hr. Gels were then electroblotted to nitrocellulose membranes using a wet-transfer method at 250 mA for 2.5 hr. Membranes were incubated with blocking buffer for 1 hr and washed 3 times with TBST for 5 min. Membranes were then incubated with anti-KRAS (Sigma-Aldrich, #SAB1404011) and anti-β-Actin monoclonal antibodies (Cell Signaling Technology, #3700) diluted in blocking buffer at 4° C. overnight per the manufacturer's recommendations. After washing 3 times, blots were incubated with appropriately labeled secondary antibodies for 1 hr at room temperature and washed again. Fluorescence imaging and quantitation was performed using a LI-COR Odyssey. Results was analyzed using GraphPad Prism 7 software. Compound concentrations that induced KRAS degradation (DC50 and DCmax) were calculated using GraphPad Prism 7 software.

Another assay deals with T1, KRAS(G12D)/SOS1 (Homo sapiens, UniProt P01116, G12D).
T1 construct: purchased Cisbio 63ADK000CB16PEG
T1 sequence (P01116 1-188 isoform P01116-2 G12D): as above
The assay is described as follows: KRAS(G12D)/SOS1 Homogeneous Time-Resolved Fluorescence (HTRF) Assay. The format is binding. The note with it: absence of GTP, 4° C., 3 hr. As for the experimental part: 3-fold serial dilutions of each test compound were prepared ranging from 20 μM to 1.02 nM. The test compound was mixed and incubated with reaction components, incubated in a sealed plate at 4° C. for 3 hr and fluorescence was measured using a PerkinElmer Envision plate reader. The % inhibition and IC50 values (the concentration at which 50% of the maximal inhibition occurs) were calculated and plotted using GraphPad Prism 7 software.

What is called IC50 is the midpoint of a concentration-inhibition curve. Low readings indicate inhibition by little substance, high ones a need for much substance. `C#Cc1cccc2cc(O)cc(-c3ncc4c(N5CC6CCC(C5)N6)nc(OCC5(CN6CCN(C(=O)C7CCN(c8ccc9c(c8)CN(C8CCC(=O)NC8=O)C9=O)CC7)CC6)CC5)nc4c3F)c12` (stereo not shown) [Compound 58]: the IC50 was 100 to 1000 nM in the assay with SW1990, 100 to 1000 nM in the assay on ASPC-1, below 100 nM with AGS and above 1000 nM with A427.
The term DC50 denotes the concentration giving 50% degradation. `C#Cc1cccc2cc(O)cc(-c3ncc4c(N5CC6CCC(C5)N6)nc(OCC5(CN6CCN(CC7CCN(c8ccc9c(c8)n(C)c(=O)n9C8CCC(=O)NC8=O)CC7)CC6)CC5)nc4c3F)c12` (stereo not shown) [Compound 64]: the concentration for half-maximal inhibition (IC50) was below 100 nM in the assay on SW1990; below 100 nM in the assay on GP2D; below 100 nM in the assay on ASPC-1; below 100 nM in the assay on AGS; 100 to 1000 nM with A427; below 100 nM against KRAS(G12D)/SOS1. Moreover, the Dmax at KRAS(G12D) was above 50%. In addition, the DC50 at KRAS(G12D) was below 100 nM.
On to `C#Cc1cccc2cccc(-c3ncc4c(N5CC6CCC(C5)N6)nc(OC[C@H]5CC[C@@H](CN6CCN(CC7CCN(c8cc9c(cc8F)C(=O)C(N8CCC(=O)NC8=O)C9=O)CC7)CC6)N5C)nc4c3F)c12` (stereo partly shown) [Compound 25], for which the IC50 in the assay on AGS is above 1000 nM; with A427 it was above 1000 nM; against KRAS(G12D)/SOS1, below 100 nM.
For the molecule `CN1C[C@H](N2CCC(C(=O)NCCOc3ccc4c(c3)C(=O)N(C3CCC(=O)NC3=O)C4=O)CC2)C[C@@H]1COc1nc(N2CC3CCC(C2)N3)c2cnc(-c3cc(O)cc4ccccc34)c(F)c2n1` (stereo partly shown) [Compound 23], the values for the IC50 with AGS, in the assay on A427 and against KRAS(G12D)/SOS1 were above 1000 nM, above 1000 nM and below 100 nM, respectively.
With `C#Cc1c(F)ccc2cc(O)cc(-c3nc(OC)c4c(N5CC6CCC(C5)N6C(=O)C(F)(F)F)nc(OCC5(CN6CCC(CN7CCN(c8ccc9c(c8)CN(C8CCC(=O)NC8=O)C9=O)CC7)CC6)CC5)nc4c3F)c12` (stereo not shown) [Compound 63], the IC50 with SW1990 is 100 to 1000 nM; in the assay with GP2D it was below 100 nM; in the assay on ASPC-1, 100 to 1000 nM; in the assay with AGS, below 100 nM; in the assay on A427, above 1000 nM; on KRAS(G12D)/SOS1, below 100 nM. For the same molecule, the Dmax on KRAS(G12D) was 10 to 50%. For the same molecule, on KRAS(G12D), the DC50 was in the range of 100 to 1000 nM.
For `COc1nc(-c2cc(O)cc3ccccc23)c(F)c2nc(OCC3(CN4CCN(CC5CCN(c6ccc7c(c6)C(=O)N(C6CCC(=O)NC6=O)C7=O)CC5)CC4)CC3)nc(C3CC4CCC(C3)N4)c12` (stereo not shown) [Compound 36], the IC50 was 100 to 1000 nM with SW1990; 100 to 1000 nM in the assay on ASPC-1; 100 to 1000 nM in the assay on AGS; 100 to 1000 nM in the assay on A427; below 100 nM at KRAS(G12D)/SOS1.
In the case of `C#Cc1cccc2cc(O)cc(-c3ncc4c(N5CC6CCC(C5)N6)nc(OCC5(CN6CCN(CC7CCN(c8ccc9c(c8)C(=O)N(C8CCC(=O)N(C)C8=O)C9=O)CC7)CC6)CC5)nc4c3F)c12` (stereo not shown) [Compound 42], the IC50 was 100 to 1000 nM in the assay with SW1990, below 100 nM with AGS, 100 to 1000 nM with A427 and below 100 nM against KRAS(G12D)/SOS1. For the same molecule, the Dmax on KRAS(G12D) was in the range of 10 to 50%. For the same molecule, at KRAS(G12D), the DC50 is above 1000 nM.
Consider `C#Cc1c(F)ccc2cc(O)cc(-c3ncc4c(N5CC6CCC(C5)N6)nc(OCC5(CN6CCN(CC7CCN(c8ccc9c(c8)CN(C8CCC(=O)NC8=O)C9=O)CC7)CC6)CC5)nc4c3F)c12` (stereo not shown) [Compound 43], for which the IC50 with SW1990, in the assay with GP2D, in the assay on ASPC-1, with AGS, with A427 and at KRAS(G12D)/SOS1 was below 100 nM throughout. In addition, at KRAS(G12D), the Dmax was above 50%. Besides, on KRAS(G12D), the DC50 is below 100 nM.
On to `C#Cc1cccc2cccc(-c3ncc4c(N5CC6CCC(C5)N6)nc(OC[C@H]5C[C@@H](N6CCN(CC7CCC(Nc8ccc9c(c8)C(=O)N(C8CCC(=O)NC8=O)C9=O)CC7)CC6)CN5C)nc4c3F)c12` (stereo partly shown) [Compound 47], for which the IC50 in the assay with SW1990, with ASPC-1, with AGS and in the assay with A427 was above 1000 nM throughout.
Take `C#Cc1cccc2cc(O)cc(-c3ncc4c(N5CC6CCC(C5)N6C(=O)C(F)(F)F)nc(OCC5(CN6CCN(CC7CCN(c8ccc9c(c8)CN(C8CCC(=O)NC8=O)C9=O)CC7)CC6)CC5)nc4c3F)c12` (stereo not shown) [Compound 57]: the IC50 with SW1990 was 100 to 1000 nM; in the assay with ASPC-1, 100 to 1000 nM; in the assay on AGS it was below 100 nM; in the assay with A427 it was 100 to 1000 nM. The Dmax at KRAS(G12D) was in the range of 10 to 50%. Besides, the DC50 at KRAS(G12D) is above 1000 nM.
